US6908908B2, “Biologically active 4H-benzo [1,4] oxazin-3-ones” (Ortho-McNeil Pharmaceutical, Inc., priority 2000, dated 2005)

Each compound was assayed against T1, PPAR γ (Homo sapiens, UniProt P37231) (assay: aP2 Assay for Agonist (induction of aP2 mRNA production)). Conditions: Table 1; fold increase over vehicle in induction of aP2 mRNA production.
T1 construct: Following the challenge of the preadipocytes, cells may be lysed with lysis buffer; endogenous in cells; host or cells: preadipocytes
T1 sequence (P37231 1-505): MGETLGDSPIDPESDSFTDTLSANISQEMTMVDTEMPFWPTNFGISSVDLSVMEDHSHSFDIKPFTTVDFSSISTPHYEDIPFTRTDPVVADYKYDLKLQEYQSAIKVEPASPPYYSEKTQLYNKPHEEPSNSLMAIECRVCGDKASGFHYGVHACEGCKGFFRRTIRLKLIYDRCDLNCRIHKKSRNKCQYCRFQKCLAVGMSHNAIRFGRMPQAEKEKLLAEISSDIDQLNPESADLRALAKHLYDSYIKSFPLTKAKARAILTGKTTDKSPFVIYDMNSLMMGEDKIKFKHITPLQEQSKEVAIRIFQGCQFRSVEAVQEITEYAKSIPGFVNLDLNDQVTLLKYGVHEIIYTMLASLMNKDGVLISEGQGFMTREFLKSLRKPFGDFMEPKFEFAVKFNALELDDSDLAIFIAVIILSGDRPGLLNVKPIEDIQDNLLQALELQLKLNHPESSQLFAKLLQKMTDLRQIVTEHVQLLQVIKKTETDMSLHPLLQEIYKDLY
Assay type: cell-based
Throughout, for Agonist Intrinsic Activity: test concentration or dose not given here.

Point of comparison: `O=C(O)Cc1ccccc1OCCC1Oc2ccccc2N(CC(=O)O)C1=O` (centres unmarked) [Compound 23], “Agonist Intrinsic Activity” value 0.8. Against it:
- CCCCCCN1C(=O)C(CCOc2ccccc2CP(=O)(O)O)Oc2ccccc21 (centres unmarked) [Compound 15, Phosphonic acid, [[2-[2-(4-hexyl-3,4-dihydro-3-oxo-2H-1,4-benzoxazin-2-yl)ethoxy]phenyl]methyl]-] — higher, 7.2
- CCCCCCN1C(=O)C(CCOc2ccc(SC(C)(C)C(=O)O)cc2)Oc2ccccc21 (centres unmarked) [Compound 121] — higher, 16.13
- NC(=O)CCCCCN1C(=O)C(CCOc2ccccc2CC(=O)O)Oc2ccccc21 (centres unmarked) [Compound 98, Benzeneacetic acid, 2-[2-[4-(6-amino-6-oxohexyl)-3,4-dihydro-3-oxo-2H-1,4-benzoxazin-2-yl]ethoxy]-] — higher, 28
- O=C(O)Cc1ccccc1OCCC1Oc2ccccc2N(CCCCCF)C1=O (centres unmarked) [Compound 113] — higher, 29.1
- COC(=O)CCc1cccc(OCCC2Oc3ccccc3N(Cc3cccc(C(F)(F)F)c3)C2=O)c1 (centres unmarked) [Compound 35] — the same, 0.8
- COC(=O)Cc1ccccc1OCCC1Oc2ccccc2N(CC(=O)OC)C1=O (centres unmarked) [Compound 45] — higher, 7.2
- CCCCCCCCCCN1C(=O)C(CCOc2ccccc2CC(=O)O)Oc2ccccc21 (centres unmarked) [Compound 57] — higher, 9.9
- COC(=O)CCCc1ccccc1OCCC1Oc2ccccc2N(Cc2cccc(C(F)(F)F)c2)C1=O (centres unmarked) [Compound 31] — higher, 0.9
- O=C([O-])CCc1cccc(OCCC2Oc3ccccc3N(Cc3cccc(C(F)(F)F)c3)C2=O)c1.[Na+] (centres unmarked) [Compound 36] — higher, 11.1
- CC(C)(C#N)CCCCN1C(=O)C(CCOc2ccccc2CC(=O)O)Oc2ccccc21 (centres unmarked) [Compound 104] — higher, 26.5
- COC(=O)Cc1ccccc1OCCC1Oc2ccccc2N(CC(=O)OC)C1=O (centres unmarked) [Compound 22] — higher, 7.2
- CC(=O)CCCCCN1C(=O)C(CCOc2ccccc2CC(=O)O)Oc2ccccc21 (centres unmarked) [Compound 108] — higher, 37.3
- O=C(O)Cc1ccccc1OCCC1Oc2ccccc2N(CCCCCO)C1=O (centres unmarked) [Compound 64] — higher, 3.6
- COC(=O)Cc1ccccc1OCCC1Oc2ccccc2N(CCOC(C)=O)C1=O (centres unmarked) [Compound 24] — higher, 1.3
- CC(C)(CCCCN1C(=O)C(CCOc2ccccc2CC(=O)O)Oc2ccccc21)C(=O)O (centres unmarked) [Compound 102] — higher, 4.1
- CC(C)CCCCN1C(=O)C(CCOc2ccccc2CC(=O)O)Oc2ccccc21 (centres unmarked) [Compound 72] — higher, 32
- O=C(O)CCCCCN1C(=O)C(CCOc2ccccc2CC(=O)O)Oc2ccccc21 (centres unmarked) [Compound 101, 2H-1,4-Benzoxazine-4-hexanoic acid, 2-[2-[2-(carboxymethyl)phenoxy]ethyl]-3,4-dihydro-3-oxo-] — higher, 3.0
- CC(=O)CCCCN1C(=O)C(CCOc2ccccc2CC(=O)O)Oc2ccccc21 (centres unmarked) [Compound 78, Benzeneacetic acid, 2-[2-[3,4-dihydro-3-oxo-4-(5-oxohexyl)-2H-1,4-benzoxazin-2-yl]ethoxy]-] — higher, 11.1
- COC(=O)Cc1ccccc1OCCC1Oc2ccccc2N(CCOC(C)=O)C1=O (centres unmarked) [Compound 47] — higher, 1.3
- O=C(O)Cc1ccccc1OCCC1Oc2ccccc2N(Cc2ccc(C(F)(F)F)cc2)C1=O (centres unmarked) [Compound 38] — higher, 38.7
- CC(F)(F)CCCCN1C(=O)C(CCOc2ccccc2CC(=O)O)Oc2ccccc21 (centres unmarked) [Compound 87] — higher, 37.9
- CC(F)(F)CCCCN1C(=O)C(CCOc2ccccc2CC(=O)O)Oc2ccccc21 (single isomer, unassigned) [Compound 88] — higher, 45.4
- O=C(O)CCc1ccccc1OCCC1Oc2ccccc2N(Cc2cc(C(F)(F)F)cc(C(F)(F)F)c2)C1=O (centres unmarked) [Compound 42] — higher, 2.1
- O=C(O)Cc1ccccc1OCCC1Oc2ccccc2N(CCCCCCCF)C1=O (centres unmarked) [Compound 110] — higher, 64.5
- CC(F)(F)CCCCCN1C(=O)C(CCOc2ccccc2CC(=O)O)Oc2ccccc21 (centres unmarked) [Compound 106] — higher, 40.8
- CCCCCCCCCCN1C(=O)C(CCOc2ccccc2CC(=O)OC)Oc2ccccc21 (centres unmarked) [Compound 56] — higher, 1.0
- O=C(O)Cc1ccccc1OCCC1Oc2ccccc2N(CCCCCCF)C1=O (single isomer, unassigned) [Compound 92] — higher, 44.8
- CC(CCN1C(=O)C(CCOc2ccccc2CC(=O)O)Oc2ccccc21)CC(C)(C)C (centres unmarked) [Compound 76] — higher, 28.7
- O=C1C(CCOc2ccccc2C(F)(F)F)Oc2ccccc2N1Cc1ccc(Cl)c(Cl)c1 (centres unmarked) [Compound 8] — higher, 3.3
- COCCCCN1C(=O)C(CCOc2ccccc2CC(=O)O)Oc2ccccc21 (centres unmarked) [Compound 114] — higher, 50.7
- CCCNC(=O)CN1C(=O)C(CCOc2ccccc2CC(=O)O)Oc2ccccc21 (centres unmarked) [Compound 122] — higher, 40.83
- CCCCCCCCN1C(=O)C(CCOc2ccccc2CC(=O)O)Oc2ccccc21 (centres unmarked) [Compound 53] — higher, 26.4
- COC(=O)Cc1ccccc1OCCC1Oc2ccccc2N(CCCCC(C)=O)C1=O (centres unmarked) [Compound 77, Benzeneacetic acid, 2-[2-[3,4-dihydro-3-oxo-4-(5-oxohexyl)-2H-1,4-benzoxazin-2-yl]ethoxy]-, methyl ester] — higher, 9.9
- CC(O)CCCCN1C(=O)C(CCOc2ccccc2CC(=O)O)Oc2ccccc21 (centres unmarked) [Compound 82, Benzeneacetic acid, 2-[2-[3,4-dihydro-4-(5-hydroxyhexyl)-3-oxo-2H-1,4-benzoxazin-2-yl]ethoxy]-] — higher, 4.9
- CC(=O)NCCCCCCN1C(=O)C(CCOc2ccccc2CC(=O)O)Oc2ccccc21 (centres unmarked) [Compound 125] — higher, 10.78
- CC(C)(CN)CCCCN1C(=O)C(CCOc2ccccc2CC(=O)O)Oc2ccccc21 (centres unmarked) [Compound 96] — higher, 27.5
- O=C(O)Cc1ccccc1OCCC1Oc2ccccc2N(CCC2CCCC2)C1=O (centres unmarked) [Compound 68] — higher, 43.2
- COC(=O)c1ccccc1OCCC1Oc2ccccc2N(Cc2cccc(C(F)(F)F)c2)C1=O (centres unmarked) [Compound 9, Benzoic acid, 2-[2-[3,4-dihydro-3-oxo-4-[[3-(trifluoromethyl)phenyl]methyl]-2H-1,4-benzoxazin-2-yl]ethoxy]-, methyl ester] — higher, 0.9
- COC(=O)Cc1ccccc1OCCC1Oc2ccccc2N(Cc2cccc(C(F)(F)F)c2)C1=O (centres unmarked) [Compound 27] — the same, 0.8
- CC(F)(F)CCCCN1C(=O)C(CCOc2ccccc2CC(=O)O)Oc2ccccc21 (single isomer, unassigned) [Compound 89] — higher, 42.0
- O=C(O)Cc1ccccc1OCCC1Oc2ccccc2N(CCCCCCCO)C1=O (centres unmarked) [Compound 112] — higher, 74.5
- O=C(O)Cc1ccccc1OCCC1Oc2ccccc2N(CCCCCCO)C1=O (centres unmarked) [Compound 95] — higher, 36.9
- C#CCN1C(=O)C(CCOc2ccccc2CC(=O)OC)Oc2ccccc21 (centres unmarked) [Compound 49] — higher, 5.7
- Cc1cccc(CN2C(=O)C(CCOc3ccccc3C(F)(F)F)Oc3ccccc32)c1 (centres unmarked) [Compound 2] — higher, 1.2

Same assay, conditions: Table 3 (stereoisomers); fold increase over vehicle in induction of aP2 mRNA production

Point of comparison: `CCCCCCN1C(=O)C(CCOc2ccc(OC(C)(C)C(=O)O)cc2)Oc2ccccc21` (centres unmarked) [Compound 129], “PPAR γ Agonist Intrinsic Activity” value 12.62. Against it:
- CC1(CCOc2ccccc2CC(=O)O)Oc2ccccc2N(CCCCCCF)C1=O (centres unmarked) [Compound 131] — higher, 36.4
